Assay type in all cases: cell-based, human
The test system of experiment [1] is MIA PaCa-2 cells. Kind of experiment: Ki-67/7-AAD IC-FACS cell cycle analysis. As to the method:
(§1) MIA-PaCa2 cells were seeded in 6-well tissue culture plate (cell density 700 × 10^3/well) and cultured as specified above. Cells were serum-starved for 8 h and then incubated with LIF (10 ng/mL) alone or plus BAR502 (10, 20 µM) or a vehicle for 24 h. The intracellular flow cytometry staining for Ki-67 was performed using the following reagents: Ki-67 Monoclonal Antibody (SolA15), Alexa Fluor™ 488, (eBioscience™, San Diego, California, USA) and 7-AAD to characterize the cell cycle phases G0-G1 and S-G2-M. Before intracellular IC-FACS, staining cells were fixed for 30 min in the dark using IC Fixation buffer (eBioscience™) and then permeabilized using Permeabilization buffer (10X) (eBioscience™). The staining for Annexin V was performed using the Annexin V Antibody (A13199, Thermofisher Scientific, Waltham, MA, USA) to evaluate the apoptosis rate. Briefly, 5 μL of Annexin V Antibody was added to each 100 μL of cell suspension, and cells were incubated the at room temperature for 15 min. Flow cytometry analyses were carried out using a 3-laser standard configuration ATTUNE NxT (LIFe Technologies, Carlsbad, CA, USA). Data were analyzed using FlowJo software (TreeStar) and the gates set using a fluorescence minus-one (FMO) control strategy. […] The channel in which the conjugated Ab is missing is the one for which the fluorescence minus one provides a gating control.

For experiment [2], the system named is MIA PaCa-2 cells. Kind of experiment: Annexin V flow cytometry (apoptosis). As to conditions: BAR502 10-20 µM + LIF 10 ng/mL; p<0.05. The method, then:
as §1

The subject of experiment [3] is MIA PaCa-2 cells. Kind of experiment: Scratch wound healing assay. As to conditions: BAR502 10 µM + LIF 10 ng/mL; 0, 24, 48 h. The method, then:
MIA PaCa-2 cells were seeded in DMEM complete medium at […] cells/well into 24-well plate and used at 70-80% confluence rate. The assay was performed as previously described ([20]), particularly on the day 1, the cell monolayers were gently scraped vertically with a new 0.2 mL pipette tip across the centre of the well. After scratching, the well was gently washed twice with PBS (Euroclone, Milan, Italy) to remove the detached cells and cell debris and finally fresh medium containing LIF (10 ng/mL) alone or in combination with BAR502 (10 µM) or EC359 (25 nM) was added into each well. Immediately after scratch creation, the 24-plate was placed under a phase-contrast microscope and the first image of the scratch acquired (T0) with using a OPTIKAM Pro Cool 5 – 4083.CL5 camera. Cells were grown for additional 48 h and images taken at 24h (T1) and 48 h (T2). The gap distance between scarps borders was quantified by assessing that area between the two margins of the scratches. All experiments were performed in triplicate.

Experiment [4] relates to MIA PaCa-2 cells. As to the kind of experiment: Real-time PCR and Western blot of EMT markers, CXCR4 and STAT3 phosphorylation. As to the method: The RNA was extracted from cell lines using and Direct-zol™ RNA MiniPrep w/Zymo-Spin™ IIC Columns (Zymo Research, Irvine, CA, USA)., according to the manufacturer’s protocol as described previously ([20]). After purification from genomic DNA by DNase-I treatment (ThermoFisher Scientific, Waltham, MA USA), 2 µg of RNA from each sample was reverse-transcribed using Kit FastGene Scriptase Basic (Nippon Genetics, Mariaweilerstraße, Düren, Germania) in a 20 μL reaction volume. Finally, 50 ng cDNA were amp LIFied in a 20 μL solution containing 200 nM of each primer and 10 μL of SYBR Select Master Mix (ThermoFisher Scientific). All reactions were performed in triplicate, and the thermal cycling conditions were as follows: 3 min at 95°C, followed by 40 cycles of 95°C for 15 s, 56°C for 20 s and 72°C for 30 s, using a Step One Plus machine (Applied Biosystem). The relative mRNA expression was calculated accordingly to the 2^-ΔCt method. Primers used in this study were designed using the PRIMER3 (http://frodo.wi.mit.edu/primer3/) software using the NCBI […]. RT-PCR primers used in this study for human sample and human cell lines were as follow [forward (for) and reverse (rev)]:
MIA-PaCa 2 cells were seeded in 6-well tissue culture plate (cell density 1.5 * 10^6/well) in DMEM complete medium. After serum starving, cells were incubated with LIF (10 ng/mL) alone or plus BAR502 (10 µM) for 10 min. Total lysates were prepared by homogenization of MIA-PaCa2 cells in RIPA buffer containing phosphatase and protease inhibitors. […] Primary Abs were detected with the HRP-labeled secondary Abs. […] Quantitative densitometry analysis was performed using ImageJ software. The degree of STAT3 phosphorylation was calculated as the ratio between the densitometry readings of […] p-STAT3/STAT3.

Molecules are shown by their SMILES.

Regarding `CC[C@H]1[C@@H](O)C2C3CC[C@H]([C@H](C)CCO)[C@@]3(C)CCC2[C@@]2(C)CC[C@@H](O)C[C@@H]12` (stereo partly shown) [BAR502], the “effect on LIF-increased S-G2-M transition” value in experiment [1] (BAR502 10-20 μM + LIF 10 ng/mL) was “significantly reversed”. For the same molecule, the “effect on LIF-induced increase of Ki-67 positive cells” value in experiment [1] (LIF 10 ng/mL + BAR502) is “reversed”. Further, the “effect on percentage of Annexin V+ cells” value in experiment [2] is listed as “increased the percentage of Annexin V^+ cells”. Also, in experiment [3], the “reduction of detachment and migration compared to LIF” value is given as “≈ 40%”. In experiment [4] (BAR502 10 µM + LIF 10 ng/mL, Western blot), the “effect on STAT3 phosphorylation caused by LIF” value is “significantly attenuated STAT3 phosphorylation”. The “effect on vimentin expression (RNA and protein) induced by LIF” value in experiment [4] (BAR502 10-20 μM + LIF 10 ng/mL) is “reversed the induction of vimentin expression”. Besides, the “effect on CXCR4 mRNA expression increased by LIF” value in experiment [4] (BAR502 + LIF 10 ng/mL, 24 h) is “reversed the mRNA expression”.

These data come from article PMC10043345, “Discovery of BAR502, as potent steroidal antagonist of leukemia inhibitory factor receptor for the treatment of pancreatic adenocarcinoma” (Frontiers in Oncology, 2023).
